We go through 2 compounds from US4239779A, “Use of phenylglyoxylic acids and derivatives thereof in the treatment of ischemic heart disease” (Pfizer Inc., priority 1979, dated 1980).

In experiment [1] the test system is anesthetized beagle dogs. Kind of experiment: Myocardial blood flow and metabolism in fasted, closed-chest, anesthetized, electrically paced beagle dogs. Format: in vivo, dog. Particulars: 0.02 to 0.1 millimole/kg intravenously; in the presence and absence of isoprenaline. How it is done:
The ability of compounds of formula (I) to reduce oxygen demand and affect the relative utilization of carbohydrate and lipid metabolites in the heart may be assessed by measuring the effect of the compounds on myocardial blood flow and metabolism in fasted, closed-chest, anesthetized beagle dogs, with cardiac catheterization to enable simultaneous sampling of coronary sinus and arterial blood to be carried out. Coronary sinus blood flow is measured by the hydrogen gas clearance technique described by Aukland et al (Circulation Res. 1964, 14, 164). The heart is paced electrically at 155 beats/min. and recordings of hemodynamic parameters (blood pressure, left ventricular pressure and the first derivative of the latter) are made continuously. Control measurements of coronary blood flow are made and samples of blood taken at 40 min. intervals, both in an untreated animal and in the same animal dosed with an infusion of isoprenaline ([…].), which both stimulates cardiac contraction and increases plasma free fatty acid levels. The compound of formula (I) is then administered intravenously and measurements are made and samples taken again, 40 minutes and 90 minutes later. The blood samples from the artery and coronary sinus are analyzed for oxyhemoglobin, pyruvate and free fatty acid (FFA) content, differences between those of the arterial and coronary sinus blood, when multiplied by coronary blood flow, being a measure of oxygen consumption, pyruvate uptake and FFA uptake by the myocardium respectively.

Experiment [2] deals with pyruvate dehydrogenase (PDH). Kind of experiment: Proportion of active pyruvate dehydrogenase (PDHa/PDHt) in hearts of fat-fed rats after dosing. Format: in vivo. Particulars: rat heart. How it is done: (2) Rats fed on a high fat diet as in test (1) (a), are treated either with placebo or with the compound of formula (I), by subcutaneous or intravenous injection or by oral administration, and at various times after treatment the rat hearts are removed and homogenized, under conditions which minimize changes in the proportion of the pyruvate dehydrogenase enzyme which is present in the active form, as described by Whitehouse and Randle (Biochem. J. 1973, 134, 651). The total amount of the enzyme present (PDHt) and the amount which is present in the active form (PDHa) are assessed by a method similar to that described by Taylor et al (J. Biol. Chem. 1973, 248, 73). The fat-feeding process is found to depress the ratio PDHa/PDHt from a normal value of about 0.7 to a value in the range from 0.05 to 0.2.

Consider `O=C(O)C(=O)c1ccc(O)cc1` [OH, H, OH, p-hydroxyphenylglyoxylic acid], for which, in experiment [1], the myocardial blood flow entry is listed as “increased”, the myocardial oxygen consumption entry was “decreased”, the myocardial pyruvate uptake result is recorded as “increases” and the “period of increased myocardial pyruvate uptake after dosing” value is “at least 90 minutes”.

In the case of `CSc1ccc(C(=O)C(=O)O)cc1` [SCH3, H, OH, p-(methylthio)phenylglyoxylic acid], the “PDHa/PDHt ratio at 1.5 hours” value amounted to 0.24 in experiment [2] (dose 0.6 mM/kg subcutaneous, placebo ratio 0.12) and 0.47 in experiment [2] (dose 1.2 mM/kg subcutaneous, placebo ratios 0.11-0.24).
